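Grown in 96-well plates, cells were treated for 48 hours with each compound at five concentrations. Insufficient inhibition: endpoint recorded as highest concentration tested. GI50 is the concentration that inhibits growth by half.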 Calls of active or inactive are those of the source. Cut-off read from the data, not from the text of the source: active = GI50 up to about 1.1 µM and inactive = higher.
Assays:
Experiment in all cases: NCI anticancer screen, dose series, 48 h
A498 = tested on: A498
CAKI-1 = tested on: CAKI-1
CCRF-CEM = tested on: CCRF-CEM
COLO 205 = tested on: COLO 205
M14 = tested on: M14
MOLT-4 = tested on: MOLT-4
NCI/ADR-RES = tested on: NCI/ADR-RES
OVCAR-3 = tested on: OVCAR-3
OVCAR-4 = tested on: OVCAR-4
RPMI-8226 = tested on: RPMI-8226
SF-268 = tested on: SF-268
SF-539 = tested on: SF-539
SK-MEL-2 = tested on: SK-MEL-2
SK-MEL-5 = tested on: SK-MEL-5
SNB-19 = tested on: SNB-19
SNB-75 = tested on: SNB-75
T47D = tested on: T47D
TK-10 = tested on: TK-10
U-251 = tested on: U-251
UO-31 = tested on: UO-31

| SMILES | GI50 (A498) | GI50 (CAKI-1) | GI50 (CCRF-CEM) | GI50 (COLO 205) | GI50 (M14) | GI50 (MOLT-4) | GI50 (NCI/ADR-RES) | GI50 (OVCAR-3) | GI50 (OVCAR-4) | GI50 (RPMI-8226) | GI50 (SF-268) | GI50 (SF-539) | GI50 (SK-MEL-2) | GI50 (SK-MEL-5) | GI50 (SNB-19) | GI50 (SNB-75) | GI50 (T47D) | GI50 (TK-10) | GI50 (U-251) | GI50 (UO-31) |
| --- | --- | --- | --- | --- | --- | --- | --- | --- | --- | --- | --- | --- | --- | --- | --- | --- | --- | --- | --- | --- |
| CC(C)(C)N(Cc1ccc2c(c1)OCO2)C(=O)/C=C\[S+]([O-])c1ccccc1 (stereo not given) | 9.48 µM (inactive) | 4.53 µM (inactive) | 0.83 µM (active) | 3.01 µM (inactive) | 2.28 µM (inactive) | 2.3 µM (inactive) | 2.48 µM (inactive) | 1.99 µM (inactive) | 3.1 µM (inactive) | 1.67 µM (inactive) | 1.23 µM (inactive) | 2.3 µM (inactive) | 3.02 µM (inactive) | 2.82 µM (inactive) | 7.67 µM (inactive) | 2.99 µM (inactive) | 2.56 µM (inactive) | 4.55 µM (inactive) | 4.33 µM (inactive) | 2.19 µM (inactive) |
| COc1cc(/C=C2\CCC(C)C3=C(c4cc(OC)c(OC)c(OC)c4)C(C#N)=C(N)OC32)cc(OC)c1OC (stereo not given) | 4 µM (inactive) | 4.73 µM (inactive) | 2.05 µM (inactive) | 2.11 µM (inactive) | 2.23 µM (inactive) | 1.84 µM (inactive) | 3.74 µM (inactive) | 4.1 µM (inactive) | 2.97 µM (inactive) | 1.63 µM (inactive) | 3.59 µM (inactive) | 2.26 µM (inactive) | 2.09 µM (inactive) | 2.61 µM (inactive) | 11.6 µM (inactive) | 1.36 µM (inactive) | 2.1 µM (inactive) | 4.21 µM (inactive) | 3.08 µM (inactive) | 3.92 µM (inactive) |
| [O-]c1c[n+](CC[n+]2cc([O-])on2)no1 | > 100 µM (inactive) | > 100 µM (inactive) | > 100 µM (inactive) | > 100 µM (inactive) | > 100 µM (inactive) | > 100 µM (inactive) | > 100 µM (inactive) | > 100 µM (inactive) | > 100 µM (inactive) | > 100 µM (inactive) | > 100 µM (inactive) |  | > 100 µM (inactive) | > 100 µM (inactive) | > 100 µM (inactive) | > 100 µM (inactive) | > 100 µM (inactive) | > 100 µM (inactive) | > 100 µM (inactive) | > 100 µM (inactive) |
| COc1ccc2c(c1)C(OC)C1c3c(cc4c(c3-2)OCO4)CCN1C (stereo not given) | 1.82 µM (inactive) | 2.12 µM (inactive) | 2.24 µM (inactive) | 2.79 µM (inactive) | 2.64 µM (inactive) | 1.95 µM (inactive) | 1.87 µM (inactive) | 5.81 µM (inactive) | 2.32 µM (inactive) | 3.46 µM (inactive) | 4.63 µM (inactive) | 2.54 µM (inactive) | 2.73 µM (inactive) | 2.43 µM (inactive) | 3.12 µM (inactive) | 4.05 µM (inactive) | 6.56 µM (inactive) | 4.53 µM (inactive) | 3.67 µM (inactive) | 1.67 µM (inactive) |
| O[C@@H]1CCC[C@@H]2NC[C@@H](c3ccc4c(c3)OCO4)[C@H]12 | > 100 µM (inactive) | > 100 µM (inactive) | > 100 µM (inactive) | > 100 µM (inactive) | > 100 µM (inactive) | > 100 µM (inactive) | > 100 µM (inactive) | > 100 µM (inactive) | > 100 µM (inactive) | > 100 µM (inactive) | > 100 µM (inactive) | > 100 µM (inactive) | > 100 µM (inactive) | > 100 µM (inactive) | > 100 µM (inactive) | > 100 µM (inactive) | > 100 µM (inactive) | > 100 µM (inactive) | > 100 µM (inactive) | > 100 µM (inactive) |
| O=C(Cn1cc(F)c(=O)[nH]c1=O)C12CC3CC(CC(C3)C1)C2 | > 100 µM (inactive) | > 100 µM (inactive) | > 100 µM (inactive) | > 100 µM (inactive) | > 100 µM (inactive) | > 100 µM (inactive) | > 100 µM (inactive) | > 100 µM (inactive) | > 100 µM (inactive) | > 100 µM (inactive) | > 100 µM (inactive) | > 100 µM (inactive) | > 100 µM (inactive) | > 100 µM (inactive) | > 100 µM (inactive) | > 100 µM (inactive) | > 100 µM (inactive) | > 100 µM (inactive) | > 100 µM (inactive) | > 100 µM (inactive) |
| COc1ccc2c3c1OC1C(OC)(OC)C=C[C@@]4(Br)[C@@H](C2)N(CC2CC2)CC[C@]314 (stereo not given in full) | > 100 µM (inactive) | 59 µM (inactive) | 86.9 µM (inactive) | 31.8 µM (inactive) | 27.1 µM (inactive) | 80.7 µM (inactive) | > 100 µM (inactive) | 46.7 µM (inactive) | 43.7 µM (inactive) | > 100 µM (inactive) | 32.1 µM (inactive) | > 100 µM (inactive) | 38.5 µM (inactive) | 37.6 µM (inactive) | > 100 µM (inactive) | 96.4 µM (inactive) | 97.9 µM (inactive) | > 100 µM (inactive) | > 100 µM (inactive) | 35.2 µM (inactive) |
| N#C/C(=C/NC(=S)NCc1ccccc1)C(N)=O | > 100 µM (inactive) | > 100 µM (inactive) | > 100 µM (inactive) | > 100 µM (inactive) | > 100 µM (inactive) | > 100 µM (inactive) | > 100 µM (inactive) | 0.063 µM (active) | > 100 µM (inactive) | > 100 µM (inactive) | > 100 µM (inactive) | > 100 µM (inactive) | > 100 µM (inactive) | > 100 µM (inactive) | > 100 µM (inactive) | > 100 µM (inactive) | > 100 µM (inactive) |  | > 100 µM (inactive) | 50.1 µM (inactive) |
| CCOC(=O)c1c(N2CCOCC2)[nH]c(=O)c(C(c2c(Cl)cccc2Cl)c2c(O)c(C(=O)OCC)c(N3CCOCC3)[nH]c2=O)c1O | 8.71 µM (inactive) | 2.31 µM (inactive) | 1.64 µM (inactive) | 4.34 µM (inactive) | 2.4 µM (inactive) | 2.07 µM (inactive) | 18 µM (inactive) | 3.48 µM (inactive) | 9.84 µM (inactive) | 2.18 µM (inactive) | 8.22 µM (inactive) | 5.11 µM (inactive) | 4.74 µM (inactive) | 4.55 µM (inactive) | 7.45 µM (inactive) | 6.7 µM (inactive) | 4.01 µM (inactive) | 4.66 µM (inactive) | 4.8 µM (inactive) | 2.47 µM (inactive) |
| O=C1Nc2ccccc2S/C1=C\c1cccc(C(F)(F)F)c1 | > 100 µM (inactive) | 3.01 µM (inactive) | > 100 µM (inactive) | > 100 µM (inactive) | > 100 µM (inactive) | > 100 µM (inactive) | > 100 µM (inactive) | > 100 µM (inactive) | > 100 µM (inactive) | > 100 µM (inactive) | > 100 µM (inactive) | > 100 µM (inactive) | > 100 µM (inactive) | > 100 µM (inactive) | > 100 µM (inactive) | > 100 µM (inactive) | 82.4 µM (inactive) | > 100 µM (inactive) | > 100 µM (inactive) | > 100 µM (inactive) |
| O=C(N/N=C(COc1ccccc1Cl)\N=C\c1cccnc1)c1ccncc1 | > 100 µM (inactive) | > 100 µM (inactive) | > 100 µM (inactive) | > 100 µM (inactive) | > 100 µM (inactive) | > 100 µM (inactive) | > 100 µM (inactive) | > 100 µM (inactive) | > 100 µM (inactive) | > 100 µM (inactive) | > 100 µM (inactive) | > 100 µM (inactive) | > 100 µM (inactive) |  | > 100 µM (inactive) | > 100 µM (inactive) | > 100 µM (inactive) | > 100 µM (inactive) | > 100 µM (inactive) |  |
| COc1ccc(-c2nc3ccccc3c(=S)n2OC(C)=O)cc1 | 23.9 µM (inactive) | 5.9 µM (inactive) | 1.5 µM (inactive) | 2.38 µM (inactive) | 4.98 µM (inactive) | 1.15 µM (inactive) | 2.54 µM (inactive) |  | 8.32 µM (inactive) | 3.27 µM (inactive) | 2.99 µM (inactive) | 4.89 µM (inactive) | > 25 µM (inactive) | 2.93 µM (inactive) | 21.1 µM (inactive) | 6.84 µM (inactive) | 3.5 µM (inactive) | > 25 µM (inactive) | 2.56 µM (inactive) | 1.91 µM (inactive) |
| COc1cc([C@@H]2c3cc4c(cc3[C@H](OC3OC5COC(C(C)C)OC5C(O)C3O)C3COC(=O)[C@@H]32)OCO4)cc(OC)c1OC (stereo not given in full) | 2.89 µM (inactive) | 4.15 µM (inactive) | 3.49 µM (inactive) | 4.59 µM (inactive) | 5.24 µM (inactive) | 4.84 µM (inactive) | 3.19 µM (inactive) | 2.62 µM (inactive) | 16.6 µM (inactive) | 5.71 µM (inactive) | 5.81 µM (inactive) | 3.6 µM (inactive) | 8.36 µM (inactive) | 5.55 µM (inactive) | 6.19 µM (inactive) | 11.6 µM (inactive) | 12.7 µM (inactive) | 32 µM (inactive) | 3.93 µM (inactive) | 11.1 µM (inactive) |
| O=C(N/C(=C\c1ccccc1)c1nc2ccccc2c(=O)o1)c1ccccc1 | > 100 µM (inactive) | > 78.3 µM (inactive) | > 100 µM (inactive) | > 100 µM (inactive) | > 79.6 µM (inactive) | > 100 µM (inactive) | 33.4 µM (inactive) | > 70.5 µM (inactive) | > 88.5 µM (inactive) | > 100 µM (inactive) | 23.8 µM (inactive) | > 53.7 µM (inactive) | > 100 µM (inactive) | > 100 µM (inactive) | 27.3 µM (inactive) | 20.4 µM (inactive) | > 28.6 µM (inactive) | > 100 µM (inactive) | 33.8 µM (inactive) | > 41.6 µM (inactive) |
